Data reported in US20260374756A1, “HETEROCYCLIC COMPOUNDS AS INHIBITORS OF MONOACYLGLYCEROL LIPASE (MAGL)” (Hoffmann-La Roche Inc., priority 2022, published 2026).

Molecular target: T1, hMAGL (Homo sapiens, UniProt Q99685)
T1 sequence (Q99685 1-303): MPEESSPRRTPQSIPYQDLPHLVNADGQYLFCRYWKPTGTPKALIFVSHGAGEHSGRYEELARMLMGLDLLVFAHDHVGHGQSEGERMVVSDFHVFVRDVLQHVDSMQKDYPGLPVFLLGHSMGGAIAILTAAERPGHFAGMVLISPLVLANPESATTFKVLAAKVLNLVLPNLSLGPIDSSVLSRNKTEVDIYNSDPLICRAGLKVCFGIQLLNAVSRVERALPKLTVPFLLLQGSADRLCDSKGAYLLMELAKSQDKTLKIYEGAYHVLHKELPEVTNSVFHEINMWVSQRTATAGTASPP
Test: 2-AG assay: MAGL inhibition, hydrolysis of 2-arachidonoylglycerol to arachidonic acid followed by mass spectrometry
Assay type: biochemical
Procedure, shortened: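 MAGL preincubated with compound 15 min at RT in 50 mM Tris, 1 mM EDTA, 0.01% Tween-20, 2.5% DMSO; reaction started with 8 μM 2-AG (final), […], 30 min at RT. Quenched with acetonitrile containing d8-arachidonic acid; arachidonic acid quantified by RapidFire SPE-triple quad MS as arachidonic acid/d8 ratio.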

Structure (SMILES) | IC50 [nM]
O=C(N1CC2(CCN(Cc3cc(C(F)(F)F)sn3)CC2)C1)N1CC2(CC(n3cnc(C(F)(F)F)n3)C2)C1 [Example 46, [7-[[5-(trifluoromethyl)isothiazol-3-yl]methyl]-2,7-diazaspiro[3.5]nonan-2-yl]-[6-[3-(trifluoromethyl)-1,2,4-triazol-1-yl]-2-azaspiro[3.3]heptan-2-yl]methanone] | 11
Cc1cc(C2CC2)nn1CC1CC2(C1)CN(C(=O)N1CC3(CC(n4cnc(C5CC5)n4)C3)C1)C2 [Example 135, [6-[(3-cyclopropyl-5-methyl-pyrazol-1-yl)methyl]-2-azaspiro[3.3]heptan-2-yl]-[6-(3-cyclopropyl-1,2,4-triazol-1-yl)-2-azaspiro[3.3]heptan-2-yl]methanone] | 0.23
O=C(N1CC2(CC(Cn3ccc(C4CC4)n3)C2)C1)N1CC2(CC(n3cnc(C(F)(F)F)n3)C2)C1 [Example 142, [6-[(3-cyclopropylpyrazol-1-yl)methyl]-2-azaspiro[3.3]heptan-2-yl]-[6-[3-(trifluoromethyl)-1,2,4-triazol-1-yl]-2-azaspiro[3.3]heptan-2-yl]methanone] | 0.94
O=C(N1CC2(CC(Cn3ccc(C4CC4)n3)C2)C1)N1CC2(CC(n3cnc(C4CC4)n3)C2)C1 [Example 143, [6-[(3-cyclopropylpyrazol-1-yl)methyl]-2-azaspiro[3.3]heptan-2-yl]-[6-(3-cyclopropyl-1,2,4-triazol-1-yl)-2-azaspiro[3.3]heptan-2-yl]methanone] | 0.38
O=C(N1CC2(CC(Cn3ccnc3C(F)(F)F)C2)C1)N1CC2(CC(n3cnc(C4(O)CC4)n3)C2)C1 [Example 146] | 14.8
O=C(N1CC2(CC(n3cnc(C4(O)CC4)n3)C2)C1)N1CC2(CN(Cc3nc(C(F)(F)F)cs3)C2)C1 [Example 52] | 138
O=C(N1CC2(CC(Cn3cc(CC(F)(F)F)cn3)C2)C1)N1CC2(CC(n3cnc(C4(O)CC4)n3)C2)C1 [Example 144, [6-[3-(1-hydroxycyclopropyl)-1,2,4-triazol-1-yl]-2-azaspiro[3.3]heptan-2-yl]-[6-[[4-(2,2,2-trifluoroethyl)pyrazol-1-yl]methyl]-2-azaspiro[3.3]heptan-2-yl]methanone] | 6.75
O=C(N1CC2(CCN(Cc3cc(C(F)(F)F)no3)CC2)C1)N1CC2(CC(n3cnc(C4(O)CC4)n3)C2)C1 [Example 18, [6-[3-(1-hydroxycyclopropyl)-1,2,4-triazol-1-yl]-2-azaspiro[3.3]heptan-2-yl]-[7-[[3-(trifluoromethyl)isoxazol-5-yl]methyl]-2,7-diazaspiro[3.5]nonan-2-yl]methanone] | 334

The next lines start with the values.

IC50 [nM] | Structure (SMILES)
9.06 | O=C(N1CC2(CC(Cc3n[nH]c(C4(C(F)(F)F)CC4)n3)C2)C1)N1CC2(CC(n3cnc(C(F)F)n3)C2)C1 [Example 335, [6-[3-(difluoromethyl)-1,2,4-triazol-1-yl]-2-azaspiro[3.3]heptan-2-yl]-[6-[[5-[1-(trifluoromethyl)cyclopropyl]-1H-1,2,4-triazol-3-yl]methyl]-2-azaspiro[3.3]heptan-2-yl]methanone]
62.8 | O=C(N1CC2(CC(Cc3n[nH]c(C4CC4)n3)C2)C1)N1CC2(CC(n3cnc(C(F)F)n3)C2)C1 [Example 318, [6-[(5-cyclopropyl-1H-1,2,4-triazol-3-yl)methyl]-2-azaspiro[3.3]heptan-2-yl]-[6-[3-(difluoromethyl)-1,2,4-triazol-1-yl]-2-azaspiro[3.3]heptan-2-yl]methanone]
52.9 | O=C(N1CC2(CC(n3cnc(C(F)(F)F)n3)C2)C1)N1CC2(CN(Cc3cnc(C(F)(F)F)o3)C2)C1 [Example 211, [6-[[2-(trifluoromethyl)oxazol-5-yl]methyl]-2,6-diazaspiro[3.3]heptan-2-yl]-[6-[3-(trifluoromethyl)-1,2,4-triazol-1-yl]-2-azaspiro[3.3]heptan-2-yl]methanone]
355 | Cn1nccc1CN1CC2(C1)CN(C(=O)N1CC3(CC(n4cnc(C5CC5)n4)C3)C1)C2 [Example 277, [6-(3-cyclopropyl-1,2,4-triazol-1-yl)-2-azaspiro[3.3]heptan-2-yl]-[6-[(2-methylpyrazol-3-yl)methyl]-2,6-diazaspiro[3.3]heptan-2-yl]methanone]
55 | O=C(N1CC2(CC(n3cnc(C(F)(F)F)n3)C2)C1)N1CC2(CN(Cc3nc(C(F)(F)F)no3)C2)C1 [Example 172, [6-[[3-(trifluoromethyl)-1,2,4-oxadiazol-5-yl]methyl]-2,6-diazaspiro[3.3]heptan-2-yl]-[6-[3-(trifluoromethyl)-1,2,4-triazol-1-yl]-2-azaspiro[3.3]heptan-2-yl]methanone]
439 | O=C(N1CC2(CC(n3cnc(C(F)(F)F)n3)C2)C1)N1CC2(CN(Cc3cnn(CC(F)(F)F)n3)C2)C1 [Example 195, [6-[[2-(2,2,2-trifluoroethyl)triazol-4-yl]methyl]-2,6-diazaspiro[3.3]heptan-2-yl]-[6-[3-(trifluoromethyl)-1,2,4-triazol-1-yl]-2-azaspiro[3.3]heptan-2-yl]methanone]
1.02 | N=S(=O)(c1cnn(CC2CC3(C2)CN(C(=O)N2CC4(CC(n5cnc(C6CC6)n5)C4)C2)C3)c1)C(F)(F)F (stereo not drawn) [Example 349, [6-(3-cyclopropyl-1,2,4-triazol-1-yl)-2-azaspiro[3.3]heptan-2-yl]-[6-[[4-(trifluoromethylsulfonimidoyl)pyrazol-1-yl]methyl]-2-azaspiro[3.3]heptan-2-yl]methanone]
